# Values of other authors in US12303531B2, “Molecular complex assembly particles comprising bis-R1,R2-dithiocarbamate-metal complex and a ligand, method of preparation and use thereof” (priority 2018, dated 2025).
smiles,measurement,value
CCN(CC)C(=S)[S-].CCN(CC)C(=S)[S-].[Cu+2] [bis(diethyldithiocarbamate)copper(II)],solubility constant in water,in the range of nanograms per litre
